What was measured:
Nannochloropsis culture = test: Nannochloropsis growth in F2 media in seawater, optical density at 680 and 750 nm; format: cell-based; conditions: for effect on Nannochloropsis growth: various concentrations, F2 media in seawater, after approximately six days, optical density 680 and 750 nm; for IC50: 144 h, read-out: concentration that inhibited Nannochloropsis growth by approximately fifty percent (50%)
Experimental: (§1) According to one exemplary method, thirty (30) microliters of a Nannochloropsis culture was introduced into seven (7) milliliters of F2 media in seawater. The mixture was distributed evenly between six well plates. Glyphosate was added at various concentrations. Additional well plates were inoculated with the same Nannochloropis culture, however, the well plates were not treated with glyphosate. After approximately six days, optical density measurements at both 680 and 750 nanometers were taken in triplicate for each of the various glyphosate concentrations.
as §1, with “were inoculated” for “was introduced”, “Ammonium chloride” for “Glyphosate”, “but” for “however, the well plates”, “ammonium chloride.” for “glyphosate.”, “ammonium chloride” for “glyphosate”
as §1, with “were inoculated” for “was introduced”, “Ammonium hydroxide” for “Glyphosate”, “Nannochloropsis” for “Nannochloropis”, “but” for “however, the well plates”, “ammonium hydroxide.” for “glyphosate.”, “ammonium hydroxide” for “glyphosate”
as §1, with “Glufosinate” for “Glyphosate”, “Nannochloropsis” for “Nannochloropis”, “glufosinate.” for “glyphosate.”, “glufosinate” for “glyphosate”

Dunaliella culture = test: Dunaliella growth in F2 media in seawater, optical density at 680 and 750 nm; format: cell-based; conditions: for effect on Dunaliella growth: various concentrations, F2 media in seawater, after approximately six days, optical density 680 and 750 nm
Experimental: as §1, with “a Dunaliella” for “a Nannochloropsis”, “culture were inoculated” for “culture was introduced”, “media within” for “media in”, “same Dunaliella” for “same Nannochloropis”, “culture, but” for “culture, however, the well plates”
(§2) According to one exemplary method, thirty (30) microliters of a Dunaliella culture were inoculated into seven (7) milliliters of F2 media in seawater. The mixture was distributed evenly between six well plates. Ammonium chloride was added at various concentrations. Additional well plates were inoculated with the same Dunaliella culture, but were not treated with ammonium chloride. After approximately six days, optical density measurements at both 680 and 750 nanometers were taken in triplicate for each of the various ammonium chloride concentrations.
as §2, with “hydroxide” for “chloride”, “hydroxide.” for “chloride.”

Row | Structure (SMILES) | effect on Nannochloropsis growth (Nannochloropsis culture) | effect on Dunaliella growth (Dunaliella culture) | IC50 (Nannochloropsis culture) [µM] | IC50 (Dunaliella culture; 144 h, read-out: concentration that inhibited Dunaliella growth by approximately fifty percent (50%)) [µM]
1 | Cl.N [ammonium chloride] | did not inhibit Nannochloropsis growth | did not inhibit Dunaliella growth |  | 
2 | O=C(O)CNCP(=O)(O)O [glyphosate] | controlled (inhibited) Nannochloropsis growth | inhibited Dunaliella growth | ~800 | ~1200
3 | N [ammonium hydroxide] | did not inhibit Nannochloropsis growth | did not inhibit Dunaliella growth |  | 
4 | CP(=O)(O)CCC(N)C(=O)O (stereo not shown) [glufosinate] | controlled (inhibited) Nannochloropsis growth |  | ~25 | 
